Laboratory results reported in ChEMBL document CHEMBL5291721, “A preclinical secondary pharmacology resource illuminates target-adverse drug reaction associations of marketed drugs” (Nat Commun, 2023).

Experiments:
Adenosine receptor A3 = biological target: T1, Adenosine receptor A3 (Homo sapiens, UniProt P0DMS8)
T1 sequence (P0DMS8 whole entry): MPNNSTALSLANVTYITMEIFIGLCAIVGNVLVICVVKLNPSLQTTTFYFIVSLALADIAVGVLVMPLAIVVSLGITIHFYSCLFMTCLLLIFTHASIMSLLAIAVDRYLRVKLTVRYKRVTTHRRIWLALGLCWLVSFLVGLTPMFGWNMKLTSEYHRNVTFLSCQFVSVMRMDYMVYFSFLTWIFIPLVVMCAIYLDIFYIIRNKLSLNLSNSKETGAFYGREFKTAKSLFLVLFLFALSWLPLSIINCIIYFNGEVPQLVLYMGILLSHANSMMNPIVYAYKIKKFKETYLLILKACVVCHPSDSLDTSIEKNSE

[1] = biological target: T2, Muscarinic acetylcholine receptor M1 (Homo sapiens, UniProt P11229); format: functional
T2 sequence (P11229 whole entry): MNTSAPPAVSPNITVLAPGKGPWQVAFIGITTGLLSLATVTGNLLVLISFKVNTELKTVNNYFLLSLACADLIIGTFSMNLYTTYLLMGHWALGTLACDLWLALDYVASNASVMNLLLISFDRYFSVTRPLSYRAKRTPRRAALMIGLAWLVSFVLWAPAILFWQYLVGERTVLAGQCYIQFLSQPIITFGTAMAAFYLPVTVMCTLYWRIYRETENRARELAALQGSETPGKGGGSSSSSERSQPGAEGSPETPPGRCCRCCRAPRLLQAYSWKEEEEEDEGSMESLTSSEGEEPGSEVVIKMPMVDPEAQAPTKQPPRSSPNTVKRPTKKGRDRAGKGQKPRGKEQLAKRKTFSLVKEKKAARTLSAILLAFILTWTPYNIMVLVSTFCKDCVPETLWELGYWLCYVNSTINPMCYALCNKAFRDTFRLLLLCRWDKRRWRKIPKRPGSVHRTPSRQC

[2] = biological target: 5-hydroxytryptamine receptor 2A (Homo sapiens, UniProt P28223); format: functional, cell-based
Progesterone receptor = biological target: T3, Progesterone receptor (Homo sapiens, UniProt P06401); format: functional
T3 sequence (P06401 whole entry): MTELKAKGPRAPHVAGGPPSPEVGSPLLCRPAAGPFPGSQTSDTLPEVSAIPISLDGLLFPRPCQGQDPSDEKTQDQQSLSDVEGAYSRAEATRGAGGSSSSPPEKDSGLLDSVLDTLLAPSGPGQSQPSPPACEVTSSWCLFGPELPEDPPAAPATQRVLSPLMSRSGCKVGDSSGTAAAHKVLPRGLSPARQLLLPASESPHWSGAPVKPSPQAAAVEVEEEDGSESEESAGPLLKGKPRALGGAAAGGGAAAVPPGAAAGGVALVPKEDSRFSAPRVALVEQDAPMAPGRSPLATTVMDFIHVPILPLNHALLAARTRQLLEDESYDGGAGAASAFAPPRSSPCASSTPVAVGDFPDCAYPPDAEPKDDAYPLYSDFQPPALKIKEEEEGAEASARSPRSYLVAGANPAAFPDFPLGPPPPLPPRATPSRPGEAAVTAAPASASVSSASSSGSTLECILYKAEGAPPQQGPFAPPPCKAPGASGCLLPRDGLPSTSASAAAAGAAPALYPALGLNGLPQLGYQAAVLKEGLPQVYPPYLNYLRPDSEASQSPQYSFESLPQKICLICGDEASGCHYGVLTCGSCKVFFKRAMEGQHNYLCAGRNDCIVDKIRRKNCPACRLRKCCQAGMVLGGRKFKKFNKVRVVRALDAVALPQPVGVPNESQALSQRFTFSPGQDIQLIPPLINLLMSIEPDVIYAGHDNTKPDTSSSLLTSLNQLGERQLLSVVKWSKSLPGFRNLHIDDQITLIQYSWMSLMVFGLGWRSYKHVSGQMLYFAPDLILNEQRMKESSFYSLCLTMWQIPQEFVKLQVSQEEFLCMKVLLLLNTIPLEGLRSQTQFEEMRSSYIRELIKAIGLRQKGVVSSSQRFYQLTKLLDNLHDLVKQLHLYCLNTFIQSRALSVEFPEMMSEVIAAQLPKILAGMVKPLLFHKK

[3] = biological target: T4, Prostaglandin G/H synthase 1 (Rattus norvegicus, UniProt Q63921); format: functional
T4 sequence (Q63921 whole entry): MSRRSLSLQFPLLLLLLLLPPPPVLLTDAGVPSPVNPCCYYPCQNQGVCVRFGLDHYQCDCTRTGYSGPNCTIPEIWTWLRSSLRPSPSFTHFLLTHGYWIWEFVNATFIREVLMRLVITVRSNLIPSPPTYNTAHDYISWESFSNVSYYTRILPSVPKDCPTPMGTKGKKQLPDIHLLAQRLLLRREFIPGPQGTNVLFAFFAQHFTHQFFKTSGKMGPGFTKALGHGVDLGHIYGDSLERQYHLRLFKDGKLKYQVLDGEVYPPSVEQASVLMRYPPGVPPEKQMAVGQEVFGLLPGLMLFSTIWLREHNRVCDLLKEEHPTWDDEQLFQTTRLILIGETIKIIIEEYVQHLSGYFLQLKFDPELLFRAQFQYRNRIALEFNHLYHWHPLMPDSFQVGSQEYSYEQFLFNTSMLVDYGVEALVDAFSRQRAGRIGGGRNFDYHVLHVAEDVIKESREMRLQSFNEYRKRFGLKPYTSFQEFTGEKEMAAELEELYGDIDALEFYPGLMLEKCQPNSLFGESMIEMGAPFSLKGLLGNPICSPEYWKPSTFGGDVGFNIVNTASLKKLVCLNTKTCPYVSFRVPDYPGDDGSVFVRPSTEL

[4] = biological target: T5, Alpha-1A adrenergic receptor (Homo sapiens, UniProt P35348)
T5 sequence (P35348 whole entry): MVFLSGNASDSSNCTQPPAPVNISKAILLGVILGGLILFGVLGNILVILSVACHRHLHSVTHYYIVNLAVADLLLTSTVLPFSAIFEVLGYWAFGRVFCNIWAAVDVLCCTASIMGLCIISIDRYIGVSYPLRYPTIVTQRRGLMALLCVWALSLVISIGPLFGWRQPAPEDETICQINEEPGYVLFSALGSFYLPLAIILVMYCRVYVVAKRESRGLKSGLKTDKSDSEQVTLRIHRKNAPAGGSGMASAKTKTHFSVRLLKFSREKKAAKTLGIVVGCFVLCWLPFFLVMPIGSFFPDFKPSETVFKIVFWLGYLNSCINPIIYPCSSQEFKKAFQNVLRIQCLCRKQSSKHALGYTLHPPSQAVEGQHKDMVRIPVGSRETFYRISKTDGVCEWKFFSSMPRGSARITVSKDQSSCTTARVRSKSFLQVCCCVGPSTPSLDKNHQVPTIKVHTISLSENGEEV

Motilin receptor = Motilin receptor (Homo sapiens, UniProt O43193)
Melanocortin receptor 4 = Melanocortin receptor 4 (Homo sapiens, UniProt P32245)
Mu-type opioid receptor = Mu-type opioid receptor (Homo sapiens, UniProt P35372)
Further: assay procedure not described here.

Sequence of Motilin receptor (O43193 whole entry): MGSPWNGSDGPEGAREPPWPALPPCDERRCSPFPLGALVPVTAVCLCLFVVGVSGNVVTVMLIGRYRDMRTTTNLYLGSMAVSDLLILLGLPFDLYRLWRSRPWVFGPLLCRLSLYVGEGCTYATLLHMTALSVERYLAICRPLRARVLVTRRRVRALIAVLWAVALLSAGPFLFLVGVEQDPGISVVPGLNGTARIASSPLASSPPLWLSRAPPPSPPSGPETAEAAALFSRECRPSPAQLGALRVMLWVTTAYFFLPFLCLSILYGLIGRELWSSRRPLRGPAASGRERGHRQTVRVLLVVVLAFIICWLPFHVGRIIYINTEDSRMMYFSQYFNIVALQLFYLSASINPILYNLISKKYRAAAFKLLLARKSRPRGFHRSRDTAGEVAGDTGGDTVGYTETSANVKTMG
Sequence of 5-hydroxytryptamine receptor 2A (P28223 whole entry): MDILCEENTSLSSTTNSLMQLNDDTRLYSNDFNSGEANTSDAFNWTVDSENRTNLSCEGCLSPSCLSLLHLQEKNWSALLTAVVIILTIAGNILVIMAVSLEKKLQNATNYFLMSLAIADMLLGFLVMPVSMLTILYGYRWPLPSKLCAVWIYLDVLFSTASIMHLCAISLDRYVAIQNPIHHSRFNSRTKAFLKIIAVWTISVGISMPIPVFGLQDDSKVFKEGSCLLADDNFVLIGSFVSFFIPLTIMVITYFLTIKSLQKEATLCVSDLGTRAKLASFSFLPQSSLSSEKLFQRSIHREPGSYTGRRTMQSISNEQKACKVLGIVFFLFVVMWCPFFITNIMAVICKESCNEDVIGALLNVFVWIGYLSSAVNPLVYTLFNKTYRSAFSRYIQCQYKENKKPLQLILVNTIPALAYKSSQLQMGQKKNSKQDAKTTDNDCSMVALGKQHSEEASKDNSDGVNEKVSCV
Sequence of Melanocortin receptor 4 (P32245 whole entry): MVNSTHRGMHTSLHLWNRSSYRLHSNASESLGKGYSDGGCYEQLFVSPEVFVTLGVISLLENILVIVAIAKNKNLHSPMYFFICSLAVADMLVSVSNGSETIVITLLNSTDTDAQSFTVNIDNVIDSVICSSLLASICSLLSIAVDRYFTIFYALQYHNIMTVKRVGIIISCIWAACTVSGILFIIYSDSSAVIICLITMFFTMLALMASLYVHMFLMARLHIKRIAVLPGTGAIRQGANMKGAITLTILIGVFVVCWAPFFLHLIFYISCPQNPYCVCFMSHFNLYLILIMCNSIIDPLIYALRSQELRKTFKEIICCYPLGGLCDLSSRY
Sequence of Mu-type opioid receptor (P35372 whole entry): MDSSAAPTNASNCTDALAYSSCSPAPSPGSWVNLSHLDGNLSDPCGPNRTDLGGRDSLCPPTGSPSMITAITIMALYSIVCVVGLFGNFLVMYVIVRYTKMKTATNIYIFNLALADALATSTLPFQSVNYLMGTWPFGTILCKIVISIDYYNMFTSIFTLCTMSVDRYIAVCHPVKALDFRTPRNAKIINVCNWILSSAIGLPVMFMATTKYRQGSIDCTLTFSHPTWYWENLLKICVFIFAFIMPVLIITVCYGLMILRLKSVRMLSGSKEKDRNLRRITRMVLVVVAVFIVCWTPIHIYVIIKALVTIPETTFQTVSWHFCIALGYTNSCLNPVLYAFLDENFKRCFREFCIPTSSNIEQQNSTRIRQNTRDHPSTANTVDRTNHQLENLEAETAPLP

| SMILES | AC50 (Adenosine receptor A3) | AC50 [1] | AC50 [2] | AC50 (Progesterone receptor) | AC50 [3] | AC50 [4] | AC50 (Motilin receptor) | AC50 (Melanocortin receptor 4) | AC50 (Mu-type opioid receptor) |
| --- | --- | --- | --- | --- | --- | --- | --- | --- | --- |
| COc1cc2c(N)nc(N3CCN(C(=O)OCC(C)(C)O)CC3)nc2c(OC)c1OC [TRIMAZOSIN] | > 30 µM | > 30 µM | > 30 µM | > 30 µM | > 30 µM | 1.8 µM | > 30 µM | – | – |
| COC(=O)[C@H]1[C@H]2C[C@@H]3c4[nH]c5cc(OC)ccc5c4CCN3C[C@H]2C[C@@H](OC(=O)/C=C/c2cc(OC)c(OC)c(OC)c2)[C@@H]1OC [RESCINNAMINE] | > 30 µM | > 10 µM | > 10 µM | > 10 µM | 11.6 µM | – | > 10 µM | > 10 µM | > 10 µM |
| COc1ccccc1OCCNCC(O)c1ccc(C)c(S(N)(=O)=O)c1 (stereo not drawn) [AMOSULALOL] | > 30 µM | > 30 µM | 7.7 µM | > 30 µM | > 30 µM | 0.3 µM | > 30 µM | – | – |
| O=C(O)C1=C(CSc2nnnn2CS(=O)(=O)O)CS[C@@H]2[C@H](NC(=O)[C@H](O)c3ccccc3)C(=O)N12 [CEFONICID] | > 30 µM | > 30 µM | > 30 µM | > 30 µM | > 30 µM | > 30 µM | > 30 µM | > 30 µM | – |
| CC(Oc1c(Cl)cccc1Cl)C1=NCCN1 (stereo not drawn) [LOFEXIDINE] | > 30 µM | > 30 µM | > 30 µM | > 30 µM | > 30 µM | 0.803 µM | > 30 µM | – | – |
| COc1ccc2c3c1O[C@H]1[C@@H](O)C=C[C@H]4[C@@H](C2)N(C)CC[C@@]341 [CODEINE] | > 30 µM | > 10 µM | – | – | > 30 µM | > 10 µM | > 10 µM | > 30 µM | – |
| CC(C(=O)O)c1ccc(N2Cc3ccccc3C2=O)cc1 (stereo not drawn) [INDOPROFEN] | > 30 µM | > 30 µM | > 30 µM | > 30 µM | 0.0694 µM | > 30 µM | > 30 µM | – | > 30 µM |
| N#Cc1ccc([C@H]2CCc3cncn32)c(F)c1 [OSILODROSTAT] | > 10 µM | > 10 µM | – | – | – | – | > 10 µM | > 10 µM | > 10 µM |
| CN1CCC(=C2c3ccccc3CCc3sccc32)CC1 [PIZOTYLINE] | > 30 µM | 0.093 µM | 0.0379 µM | – | > 30 µM | – | > 10 µM | > 30 µM | > 10 µM |
| COC(=O)C1=C(C)NC(C)=C(C(=O)OC(C)(C)CN(C)CCC(c2ccccc2)c2ccccc2)C1c1cccc([N+](=O)[O-])c1 (stereo not drawn) [LERCANIDIPINE] | 8.8 µM | > 30 µM | > 30 µM | > 30 µM | 18.7 µM | 5.7 µM | 12.6 µM | > 30 µM | – |
| COC(=O)C1=C(C)NC(C)=C(C(=O)OC2CCCN(Cc3ccccc3)C2)C1c1cccc([N+](=O)[O-])c1 (stereo not drawn) [BENIDIPINE] | 3.5 µM | 18 µM | > 30 µM | – | > 30 µM | 3 µM | 3.5 µM | – | – |
| CC(=O)O[C@H]1CC[C@@]2(C)C(=CC[C@@H]3[C@@H]2CC[C@]2(C)C(c4cccnc4)=CC[C@@H]32)C1 [ABIRATERONE ACETATE] | > 30 µM | > 30 µM | > 30 µM | > 30 µM | > 30 µM | > 10 µM | > 30 µM | – | > 30 µM |
| Nc1nc(/C(=C/CC(=O)O)C(=O)N[C@@H]2C(=O)N3C(C(=O)O)=CCS[C@H]23)cs1 [CEFTIBUTEN] | > 30 µM | > 30 µM | > 30 µM | > 30 µM | > 30 µM | – | > 30 µM | > 30 µM | – |
| C/C(O)=C(\C#N)C(=O)Nc1ccc(C(F)(F)F)cc1 [TERIFLUNOMIDE] | > 30 µM | > 30 µM | 28 µM | > 30 µM | > 30 µM | – | > 30 µM | – | > 30 µM |
| COc1ccccc1N1CCN(CCCNc2cc(=O)n(C)c(=O)n2C)CC1 | > 30 µM | > 30 µM | > 30 µM | > 30 µM | > 30 µM | 0.0043 µM | > 30 µM | – | – |
| NCC(=O)CCC(=O)O [AMINOLEVULINIC ACID] | > 30 µM | > 30 µM | > 30 µM | > 30 µM | > 30 µM | – | > 30 µM | – | > 30 µM |
| Cc1cc(O)c(C(=O)N[C@@H](C(=O)N[C@@H]2C(=O)N3C(C(=O)O)=C(CSc4nnnn4C)CS[C@H]23)c2ccc(O)cc2)cn1 [CEFPIRAMIDE] | > 30 µM | > 30 µM | > 30 µM | > 30 µM | > 30 µM | > 30 µM | > 30 µM | > 30 µM | – |
| O=C(NCCNCC(O)COc1ccc(O)cc1)N1CCOCC1 (stereo not drawn) [XAMOTEROL] | > 30 µM | > 30 µM | > 30 µM | > 30 µM | > 30 µM | – | > 30 µM | – | – |
| CCC1(CC)C(=O)NCC(C)C1=O (stereo not drawn) [METHYPRYLON] | > 30 µM | > 30 µM | > 30 µM | > 30 µM | > 30 µM | – | > 30 µM | – | – |
